# Results taken from patent US20130023469A1, “LEPTIN FOR USE IN INCREASING LIVER REGENERATION” (Hadasit Medical Research Services & Development Ltd., priority 2009, published 2013).
# Values joined by “and” are separate entries in the source; they are usually repeats but may differ in a detail not shown here. Equal values may be shown once. “Also recorded” adds a separate entry of the source.
# B1: leptin: adipokine of the IL6 family; mouse leptin was injected in mice (protein, UniProt P41160 22-167, looked up)
# Leptin: VPIQKVQDDTKTLIKTIVTRINDISHTQSVSAKQRVTGLDFIPGLHPILSLSKMDQTLAVYQQVLTSLPSQNVLQIANDLENLRDLLHLLAFSKSCSLPQTSGLQKPESLDGVLEASLYSTEVVALSRLQGSLQDILQQLDVSPEC
# B2: prolactin: hormone elevated in pregnancy that can activate the Akt/mTORC1 pathway (protein, UniProt P01236 29-227, looked up)
# Prolactin: LPICPGGAARCQVTLRDLFDRAVVLSHYIHNLSSEMFSEFDKRYTHGRGFITKAINSCHTSSLATPEDKEQAQQMNQKDFLSLIVSILRSWNEPLYHLVTEVRGMQEAPEAILSKAVEIEEQTKRLLEGMELIVSQVHPETKENEIYPVWSGLPSLQMADEESRLSAYYNLLHCLRRDSHKIDNYLKLLKCRIIHNNNC
# Key:
# Akt/mTORC1 pathway = assay: Western blot / phospho-4E-BP analysis of liver for Akt/mTORC1 pathway activation; format: in vivo, mice
# Experimental: (§1) Animal studies and tissue preparation. All animal experiments were performed in accordance with the guidelines of the Institutional Committee for the Use of Animals for Research (IACUC). Mice aged 18 months or older (‘old’ mice) were either purchased from the National Institute of Aging and from Charles River Laboratories or maintained up to the required age in the Specific Pathogen Free (SPF) animal facility at our institution. Mice aged 10-12 months (‘aged’ mice) and 8-week-old ob/ob mice were purchased from Harlan Laboratories. The genetic background of all mice was c57 Black. Pregnancy in ob/ob mice was induced as described previously (Malik et al., 2001). […] Progesterone levels were measured to verify pseudopregnancy induction (Shiotani et al., 1993). […] For measurement of serum prothrombin time, sodium citrate (0.105 M) was added immediately to the blood sample at a ratio of 1:10 (v/v), and values were recorded with a Beckman Coulter ACL 9000 Coagulation Analyzer according to the manufacturer's instructions. […]
# Western blot analysis. […] Tissue lysates containing 100 μg protein were separated by 12% SDS-PAGE, and assessed by Western blot analysis by means of sequential probing with the relevant primary antibody and a relevant anti-IgG conjugated to horseradish peroxidase (Jackson ImmunoResearch).
# hepatocytes [1] = assay: Hepatocyte cell size (E-cadherin staining) after partial hepatectomy; format: in vivo, mice
# Experimental: as §1
# Measurement of cell size. […] The numbers of pixels in 100-300 individual hepatocytes for each mouse were scored with ImageJ (NIH) by an observer who was blinded to the treatment group. […] Mean hepatocyte volume was calculated by dividing the hepatocyte volume by the number of hepatocytes. […]
# hepatocytes [2] = assay: BrdU incorporation into hepatocytes (proliferation index) after two-thirds partial hepatectomy; format: in vivo, mice
# Experimental: Animal studies and tissue preparation. All animal experiments were performed in accordance with the guidelines of the Institutional Committee for the Use of Animals for Research (IACUC). Mice aged 18 months or older (‘old’ mice) were either purchased from the National Institute of Aging and from Charles River Laboratories or maintained up to the required age in the Specific Pathogen Free (SPF) animal facility at our institution. Mice aged 10-12 months (‘aged’ mice) and 8-week-old ob/ob mice were purchased from Harlan Laboratories. The genetic background of all mice was c57 Black. Pregnancy in ob/ob mice was induced as described previously (Malik et al., 2001). Pseudopregnancy was induced by mating females with vasectomized males and observing for the presence of vaginal plugs. Progesterone levels were measured to verify pseudopregnancy induction (Shiotani et al., 1993). For rapamycin treatment, mice were injected intraperitoneally (i.p.) for 3 consecutive days with rapamycin (0.2 mg/kg body weight diluted in DMSO; LC Laboratories), starting 3 h before the hepatectomy. For PTEN inhibition, bpV(phen) (3.3 μg/g body weight diluted in normal saline; Alexis Biochemicals) was administered i.p. on the day before hepatectomy and once a day for 3 days thereafter. BrdU (100 μl/10 g body weight; Amersham) was injected i.p. at the indicated times before the mice were killed. When indicated, BrdU (#B5002; Sigma) was added to the drinking water (0.8 mg/ml). The mice were allowed to drink ad libitum. For all experiments mice were killed by cervical dislocation. In some cases, a liver sample was removed and ‘snap-frozen’ for protein and RNA analyses. Livers were removed, weighed, photographed, and fixed in formalin overnight, and the next day the entire liver was embedded in paraffin. For measurement of serum prothrombin time, sodium citrate (0.105 M) was added immediately to the blood sample at a ratio of 1:10 (v/v), and values were recorded with a Beckman Coulter ACL 9000 Coagulation Analyzer according to the manufacturer's instructions. For ⅔ partial hepatectomy, virgin or pregnant mice (16-18 days post-coitum unless otherwise specified) were anesthetized, and the median and left lateral lobes of the liver were removed, as described (Ben Moshe et al., 2007).
# Proliferation index. The percentage of BrdU-positive hepatocyte nuclei was assessed using the Kisight module of the Ariol SL 50® automated scanning microscope and image analysis system, according to the manufacturer's instructions. The same gating parameters were used for all sections. Ten fields in each liver were scored and the average percentage was calculated.
# Immunohistochemistry and immunofluorescence. […]
# [3] = tested on: old mice after partial hepatectomy; assay: Post-hepatectomy mortality in old mice; format: in vivo; conditions: female mice aged 18-24 mo, control four out of nine, P=0.014
# Experimental: Animal studies and tissue preparation. All animal experiments were performed in accordance with the guidelines of the Institutional Committee for the Use of Animals for Research (IACUC). Mice aged 18 months or older (‘old’ mice) were either purchased from the National Institute of Aging and from Charles River Laboratories or maintained up to the required age in the Specific Pathogen Free (SPF) animal facility at our institution. Mice aged 10-12 months (‘aged’ mice) and 8-week-old ob/ob mice were purchased from Harlan Laboratories. The genetic background of all mice was c57 Black. Pregnancy in ob/ob mice was induced as described previously (Malik et al., 2001). Pseudopregnancy was induced by mating females with vasectomized males and observing for the presence of vaginal plugs. Progesterone levels were measured to verify pseudopregnancy induction (Shiotani et al., 1993). For rapamycin treatment, mice were injected intraperitoneally (i.p.) for 3 consecutive days with rapamycin (0.2 mg/kg body weight diluted in DMSO; LC Laboratories), starting 3 h before the hepatectomy. […] For measurement of serum prothrombin time, sodium citrate (0.105 M) was added immediately to the blood sample at a ratio of 1:10 (v/v), and values were recorded with a Beckman Coulter ACL 9000 Coagulation Analyzer according to the manufacturer's instructions. […]
# [4] = tested on: old mice after partial hepatectomy; assay: Post-hepatectomy blood coagulation (prothrombin time) and locomotor activity tests; format: in vivo; conditions: female mice aged 18-24 mo, compared with nontreated old mice
# Experimental: Animal studies and tissue preparation. All animal experiments were performed in accordance with the guidelines of the Institutional Committee for the Use of Animals for Research (IACUC). Mice aged 18 months or older (‘old’ mice) were either purchased from the National Institute of Aging and from Charles River Laboratories or maintained up to the required age in the Specific Pathogen Free (SPF) animal facility at our institution. Mice aged 10-12 months (‘aged’ mice) and 8-week-old ob/ob mice were purchased from Harlan Laboratories. The genetic background of all mice was c57 Black. Pregnancy in ob/ob mice was induced as described previously (Malik et al., 2001). Pseudopregnancy was induced by mating females with vasectomized males and observing for the presence of vaginal plugs. Progesterone levels were measured to verify pseudopregnancy induction (Shiotani et al., 1993). […] For measurement of serum prothrombin time, sodium citrate (0.105 M) was added immediately to the blood sample at a ratio of 1:10 (v/v), and values were recorded with a Beckman Coulter ACL 9000 Coagulation Analyzer according to the manufacturer's instructions. […]
# Locomotor activity. This was monitored using a photocell cage, 43.2 cm×43.2 cm (Med Associates), with 16 beam I/R arrays located along each wall of the box. […]
# hepatocytes [5] = conditions: previous studies; cited from earlier work
# [6] = tested on: H35 cells (rat hepatoma cell line); assay: Western blot of H35 cells treated with leptin, IL6 or both; format: cell-based; conditions: starvation for 16 h then treated
# Experimental: Western blot analyses of hepatoma rat cells, that were under starvation for 16 h and then treated with: bpV(phen), leptin, IL-6 and combination of IL-6 and Leptin.
# Leptin is an adipokine of the IL6 family and its receptor signals through both the JAK/STAT and the Akt/mTORC1 pathways. Its origin is placental in humans, maternal in mice, and in late pregnancy it is increased by up to 25-fold. To test whether pregnancy-induced leptin accumulation contributes to the proliferation-to-hypertrophy switch in pregnancy we used ob/ob mice, which carry a loss-of-function mutation in leptin. Indeed, hepatocyte proliferation was not decreased in pregnant versus non-pregnant ob/ob mice (FIG. 13A). Moreover, liver regeneration in pregnant ob/ob mice was not accompanied by hepatocyte hypertrophy (FIGS. 13B-D). These findings confirmed that maternal leptin is necessary for the pregnancy-induced module switch. Furthermore, the phosphorylation state of components of the Akt/mTORC1 pathway was not increased in pregnant relative to nonpregnant mice (FIG. 13E FIG. 4e). […] Cells were harvested and protein extracts were analyzed by Western blot analysis. […] To test whether leptin is sufficient to activate the hypertrophy module, we administered leptin or vehicle to nonpregnant female mice prior to and after hepatectomy (FIG. 15A) and assessed liver growth and proliferation.
# liver regeneration = assay: Prolactin administration to nonpregnant mice, liver regeneration; format: in vivo; conditions: data not shown
# From the text: In searching for the upstream signals mediating the pregnancy-induced switch, we identified four candidate hormones that are elevated in pregnancy and can activate the Akt/mTORC1 pathway: growth hormone (and its variants), prolactin, leptin and estrogen.
# [7] = young nonpregnant mice treated with bpV(phen), after partial hepatectomy
molecule,measurement,setting,value
"O.O.O.OO.OO.[K+].[OH-].[V].c1cnc2c(c1)ccc1cccnc12 [bpV(phen), bisperoxovanadium 1,10-phenanthroline]","activation of Akt/mTORC1 pathway (phosphorylated Akt and 4E-BP1, Western blot)",Akt/mTORC1 pathway; liver extracts of young mice treated with bpV(phen),activates the Akt/mTORC1 pathway
same,growth in the mean cross-sectional area,hepatocytes [1]; [7],115%
same,proliferation index,hepatocytes [2]; [7],low proliferation index
same,BrdU-labeled hepatocytes,"hepatocytes [2]; young nonpregnant mice, 4 d after partial hepatectomy, continuous BrdU, bpV(phen) 3.3 μg/g i.p., untreated 92±1%",8±2%
same,mortality rate,[3],zero out of nine
same,recovery from partial hepatectomy (blood coagulation and locomotor activity),[4],significant improvement in recovery from partial hepatectomy
CO[C@H]1C[C@@H]2CC[C@@H](C)[C@@](O)(O2)C(=O)C(=O)N2CCCC[C@H]2C(=O)O[C@H]([C@H](C)C[C@@H]2CC[C@@H](O)[C@H](OC)C2)CC(=O)[C@H](C)/C=C(\C)[C@@H](O)[C@@H](OC)C(=O)[C@H](C)C[C@H](C)/C=C/C=C/C=C/1C [rapamycin],cell size,"hepatocytes [1]; aged pregnant mice, 2 d after partial hepatectomy, rapamycin-treated, vehicle 527±2",422±1 μ^2
same,hepatocyte proliferation rate (BrdU-labeled),"hepatocytes [2]; aged pregnant mice, 2 d after partial hepatectomy, rapamycin 0.2 mg/kg i.p. for 3 days, vehicle 2%±1%",25±8% and 25%±8%
Estrogen,hepatocyte proliferation after partial hepatectomy,hepatocytes [5],increase hepatocyte proliferation after partial hepatectomy
"growth hormone: hormone elevated in pregnancy; not tested by the applicant, literature result only",hepatocyte proliferation after partial hepatectomy,hepatocytes [5],increase hepatocyte proliferation after partial hepatectomy
B1,Akt pathway activation (phosphorylation of S6 kinase and 4E-BP),[6],activates the Akt pathway; also recorded: phosphorylation of both S6 kinase and 4E-BP
same,Akt pathway activation (phosphorylation of 4E-BP),"Akt/mTORC1 pathway; nonpregnant female mice, leptin S.C. 1 mg/kg, two days after partial hepatectomy",activating the Akt pathway
same,hepatocyte proliferation after partial hepatectomy,hepatocytes [5],attenuates hepatocyte proliferation after partial hepatectomy
same,hepatocyte proliferation (BrdU-positive cells),"hepatocytes [2]; nonpregnant female mice, leptin S.C. 1 mg/kg from two days before to two days after partial hepatectomy",marked reduction in hepatocyte proliferation
B2,effect on liver regeneration,liver regeneration,no effect on liver regeneration
